Measured values as given in publication PMC11795524, “Melanin-Binding-Based Discovery of Topically Instilled Carbonic Anhydrase Inhibitors for Targeted Delivery and Prolonged Action in the Eye” (Molecular Pharmaceutics, 2025).

What was measured:
[1] = In vitro melanin binding by microscale thermophoresis / initial fluorescence (Monolith NT.115 pico); conditions: Appendix table 1, Nano or Pico detector, IF or MST mode, 68% confidence; for Kd: read-out: Melanin binding affinity Kd ± confidence
Description: Melanin binding of the CAI-II compounds was studied with a Monolith NT.115 pico (NanoTemper Technologies GmbH, Munich, Germany) device using the method of […] et al. […] Otherwise, normalized fluorescence signals and the ratio of relative fluorescence after heating (MST mode) were used. The MST software was used in expert mode to allow heating for 30 s. […] As ligand autofluorescence may interfere with the assay, their autofluorescence values were pretested with the detector used in experiment (nanoblue or pico-red). Fluorescence of the ligand should be below 20% of melanin fluorescence. Sample aggregation and adsorption to the capillaries were used also as exclusion criteria.

[2] = target: recombinant human carbonic anhydrase II; design: method as in earlier work; conditions: stopped flow kinetics protocol; read-out: Ki against hCA II; cited from earlier work

Row | Compound | Kd [1] [µM] | Ki [2] [nM] | Melanin binding affinity Kd ± confidence [1]
1 | NS(=O)(=O)c1ccc(-n2ncc3ccccc3c2=O)cc1 [A06] | 104 ± 42 | 0.23 ± 0.02 | –
2 | COc1cc(S(N)(=O)=O)ccc1-c1nc(-c2cccnc2)no1 [A09] | 152 ± 98 | 0.74 ± 0.08 | –
3 | Cc1ccccc1-c1noc(-c2ccc(S(N)(=O)=O)cc2)n1 [A11] | 177 ± 56 | 0.42 ± 0.04 | –
4 | NS(=O)(=O)c1ccc(-n2nc(-c3ccccc3)ccc2=O)cc1 [A03] | 78 ± 39 | 0.26 ± 0.03 | –
5 | NS(=O)(=O)c1cc(-c2noc(C3CC3)n2)cs1 [B05] | 448 ± 166 | 0.88 ± 0.08 | –
6 | NS(=O)(=O)c1cccc(-c2nc(-c3cccnc3)no2)c1 [A02] | 78 ± 24 | 0.77 ± 0.08 | –
7 | NS(=O)(=O)NCc1cccc2ccccc12 [C02] | 122 ± 40 | 5250 ± 525 | –
8 | NS(=O)(=O)NCc1ccc(F)cc1 [C03] | 361 ± 700 | 70.5 ± 7.1 | –
9 | NS(=O)(=O)Nc1ccc(F)cc1F [C01] | 92 ± 25 | 76.3 ± 7.6 | –
10 | NS(=O)(=O)c1ccc(-c2ncc(C(=O)N3CCNCC3)o2)s1 [B02] | 165 ± 19 | 0.069 ± 0.007 | –
11 | CCOC(=O)C1CCN(S(N)(=O)=O)CC1 [C20] | – | 42.8 ± 4.3 | Not detectable
12 | CC(=O)Nc1nc(-c2csc(S(N)(=O)=O)c2)no1 [B03] | 231 ± 43 | – | –
13 | NS(=O)(=O)c1ccc(-n2ncc(N3CCc4ccccc4C3)c(Cl)c2=O)cc1 [A29] | – | 60.5 ± 6 | –
14 | Cc1nn(-c2ccc(S(N)(=O)=O)cc2)c(=O)c2ccccc12 [A14] | 205 ± 98 | 0.03 ± 0.01 | –
15 | NS(=O)(=O)NC1CCCc2ccccc21 (stereo not drawn) [C16] | 25000 | 42.6 ± 4.3 | –
16 | NS(=O)(=O)c1ccc(-c2nc(-c3ccc(Oc4ccc(F)cc4)cc3)no2)cc1 [A16] | 451 ± 581 | 48.3 ± 4.8 | –
17 | NS(=O)(=O)c1ccc(-n2nc(-c3ccc(Cl)c(Cl)c3)ccc2=O)cc1 [A25] | – | 74.1 ± 7.4 | –
18 | CN(C)CCN(Cc1ccccc1)S(N)(=O)=O [C11] | 1620 ± 4530 | 39.8 ± 4 | –
19 | NS(=O)(=O)N1CCCc2ccccc21 [C15] | – | 89.5 ± 9 | –
20 | NS(=O)(=O)N1CCc2ccccc21 [C19] | – | 472 ± 47.2 | Not detectable
21 | NS(=O)(=O)N1CCC(N2CCCCC2)CC1 [C14] | – | 99.3 ± 9.9 | –
22 | Cc1cc(-n2cccn2)ccc1S(N)(=O)=O [A23] | 957 ± 2010 | 0.008 ± 0.001 | –
23 | NS(=O)(=O)c1ccc(-c2ccc(=O)[nH]n2)s1 [B04] | 393 ± 185 | 3.6 ± 0.4 | –
24 | Cc1ccc(=O)n(-c2ccc(S(N)(=O)=O)cc2)n1 [A30] | – | 0.68 ± 0.07 | Not detectable
25 | COc1ccc(-c2noc(-c3ccc(S(N)(=O)=O)cc3)n2)cc1OC [A04] | 92 ± 17 | 0.46 ± 0.05 | –
26 | Cc1nn(-c2cc(S(N)(=O)=O)ccc2Cl)c(C)c1S(N)(=O)=O [B10] | – | 0.008 ± 0.01 | –
27 | NS(=O)(=O)NCCc1ccc(S(=O)(=O)N2CCCC2)cc1 [C07] | 596 ± 264 | 43.5 ± 4.4 | –
28 | Cc1nn(-c2ccc(Cl)c(S(N)(=O)=O)c2)c(C)c1S(N)(=O)=O [B08] | – | 0.008 ± 0.001 | –

Row | Compound | Kd [1] [µM] | Ki [2] [nM] | Melanin binding affinity Kd ± confidence [1]
29 | CCN(CC)CCN(C)S(N)(=O)=O [C10] | 1520 ± 4030 | 92.3 ± 9.2 | –
30 | Cc1cc(C)n(-c2ccc(S(N)(=O)=O)cc2)n1 [A28] | – | 0.004 ± 0.001 | –
31 | NS(=O)(=O)N1CCOCC1 [C21] | – | 66.9 ± 7 | Not detectable
32 | CC1Cc2ccccc2N1S(N)(=O)=O (stereo not drawn) [C13] | 1700 | 316 ± 31.6 | –
33 | COc1ccc2cnn(-c3ccc(S(N)(=O)=O)cc3)c(=O)c2c1OC [A08] | 142 ± 55 | 3.5 ± 0.4 | –
34 | Cc1ccccc1-n1nc(C)c(S(N)(=O)=O)c1C [B11] | – | 0.091 ± 0.01 | Not detectable
35 | CN1CCC(NS(N)(=O)=O)CC1 [C12] | 1680 ± 3480 | 52.1 ± 5.2 | –
36 | Nc1onc(-c2csc(S(N)(=O)=O)c2)c1S(N)(=O)=O [B09] | 2130 | 24.6 ± 2.5 | –
37 | COC(=O)C1CCCN1S(N)(=O)=O (stereo not drawn) [C18] | – | 69.8 ± 7 | Not detectable
38 | NS(=O)(=O)Nc1cccc2ccccc12 [C08] | 1050 ± 2070 | 56.7 ± 5.7 | –
39 | NS(=O)(=O)c1ccc(Cl)c(-n2cccn2)c1 [A27] | – | 0.001 ± 0.001 | –
40 | COc1cc(S(N)(=O)=O)ccc1-c1nc(-c2ccc3c(c2)OC(=O)CN3C)no1 [A24] | 1550 ± 4580 | 48.3 ± 4.8 | –
41 | NS(=O)(=O)N1CCc2ccccc2C1 [C09] | 1120 ± 2350 | 32.8 ± 3.3 | –
42 | NS(=O)(=O)c1ccc(-n2cccn2)cc1 [A13] | 203 ± 367 | 0.072 ± 0.001 | –
43 | NS(=O)(=O)Nc1ccc(C(F)(F)F)cc1 [C06] | 582 ± 465 | 37.8 ± 3.8 | –
44 | NS(=O)(=O)NCC1CCCO1 (stereo not drawn) [C05] | 412 ± 802 | 63.4 ± 6.3 | –
45 | NS(=O)(=O)c1ccc2c(c1)Oc1ccccc1C(=O)N2C1CC1 [A21] | 722 ± 1030 | 0.82 ± 0.08 | –
46 | NC(=O)C1CCN(S(N)(=O)=O)CC1 [C22] | – | 59.4 ± 6 | Not detectable
47 | CCn1nc(-c2cc(S(N)(=O)=O)c(C)s2)ccc1=O [B01] | 105 ± 30 | 4.8 ± 0.5 | –
48 | Cc1ccc(-c2noc(N)c2S(N)(=O)=O)cc1S(N)(=O)=O [B06] | 573 ± 154 | 6 ± 0.6 | –
49 | CC(C)(C)OC(=O)N1CCN(S(N)(=O)=O)CC1 [C17] | – | 16.2 ± 1.6 | Not detectable
50 | NS(=O)(=O)c1cnn(-c2ccc(Cl)c(S(N)(=O)=O)c2)c1 [B07] | 941 ± 1740 | 0.008 ± 0.001 | –
51 | NS(=O)(=O)c1ccc(-c2noc(-c3ccsc3)n2)cc1 [A18] | 520 ± 79 | 44.3 ± 4.4 | –
52 | CC(C)(C)c1ccc(-c2noc(-c3ccc(S(N)(=O)=O)cc3)n2)cc1 [A26] | – | 0.95 ± 0.09 | –
53 | COc1ccc(-c2ccc(=O)n(-c3ccc(S(N)(=O)=O)cc3)n2)cc1 [A10] | 156 ± 101 | 0.08 ± 0.001 | –
54 | NS(=O)(=O)c1ccc(-n2ncccc2=O)cc1 [A20] | – | 8.2 ± 0.8 | –
55 | NS(=O)(=O)N1CCC(O)CC1 [C04] | 405 ± 311 | 42.7 ± 4.3 | –
